Data from PubChem BioAssay (NCI).
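Where inhibition never reached the appropriate level, the endpoint shown equals the highest concentration tested. Otherwise, values were interpolated linearly from a five-concentration, 48-hour dose response in 96-well plates. The concentration for 50% growth inhibition is given as GI50. At the TGI there is no net growth.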

How the values were obtained:
Assay in all cases: NCI tumour cell line growth inhibition, 48 h
SNB-75 CNS = test system: SNB-75 CNS
BT-549 breast = test system: BT-549 breast
HCT-116 colon = test system: HCT-116 colon
EKVX NSCLC = test system: EKVX NSCLC
SNB-19 CNS = test system: SNB-19 CNS
COLO 205 colon = test system: COLO 205 colon
IGROV1 ovarian = test system: IGROV1 ovarian
SW-620 colon = test system: SW-620 colon
SN12C renal = test system: SN12C renal
SK-MEL-5 melanoma = test system: SK-MEL-5 melanoma

| Compound | TGI (SNB-75 CNS) | TGI (BT-549 breast) | TGI (HCT-116 colon) | TGI (EKVX NSCLC) | TGI (SNB-19 CNS) | TGI (COLO 205 colon) | TGI (IGROV1 ovarian) | TGI (SW-620 colon) | TGI (SN12C renal) | TGI (SK-MEL-5 melanoma) | GI50 (SNB-75 CNS) | GI50 (BT-549 breast) | GI50 (HCT-116 colon) | GI50 (EKVX NSCLC) | GI50 (SNB-19 CNS) | GI50 (COLO 205 colon) | GI50 (IGROV1 ovarian) | GI50 (SW-620 colon) | GI50 (SN12C renal) | GI50 (SK-MEL-5 melanoma) |
| --- | --- | --- | --- | --- | --- | --- | --- | --- | --- | --- | --- | --- | --- | --- | --- | --- | --- | --- | --- | --- |
| COc1ccc(C(Nc2ccccn2)c2cc(C(C)(C)C)cc(C(C)(C)C)c2O)cc1 (stereo not given) | 49.4 µM | 56.8 µM | > 100 µM | > 100 µM | > 100 µM | 50 µM | > 100 µM | > 100 µM | > 100 µM | 31.3 µM | – | – | – | – | – | – | – | – | – | – |
| C/C=C(\C)C(=O)O[C@@H]1C=CC(=O)O[C@H]1CNC(=O)[C@H](C)O | > 74.3 µM | 28 µM | 24.2 µM | 49.5 µM | > 74.8 µM | 27.2 µM | > 78.1 µM | 25.4 µM | > 75.6 µM | 38.8 µM | 24.4 µM | 12.5 µM | 9.48 µM | 20.9 µM | 27 µM | 8.96 µM | 26.6 µM | 10 µM | 26.9 µM | 19.6 µM |
| COc1ccc2nc3ccccc3c(NCc3ccccc3)c2c1 | 10 µM | 5.18 µM | 5.25 µM | 11.4 µM | 13.7 µM | 3.54 µM | 6.66 µM | 4.68 µM | 10.5 µM | 3.17 µM | 2.48 µM | 2.16 µM | 1.72 µM | 3.03 µM | 3.41 µM | 1.54 µM | 2.34 µM | 1.72 µM | 2.71 µM | 1.76 µM |
| Cc1cn(C2CC(O)C(COC(N)=O)O2)c(=O)[nH]c1=O (stereo not given) | > 100 µM | > 100 µM | > 100 µM | > 100 µM | > 100 µM | > 100 µM | > 100 µM | > 100 µM | > 100 µM | > 100 µM | – | – | – | – | – | – | – | – | – | – |
| C=C1C(=O)O[C@H]2[C@H]1CC/C(COC(=O)N[C@H](Cc1c[nH]c3ccccc13)C(=O)OC)=C\CC[C@@]1(C)O[C@@H]21 | 22.5 µM | 2.96 µM | 2.59 µM | 5.66 µM | 22.6 µM | 3.76 µM | 5.35 µM | 4.17 µM | 5.69 µM | 20.5 µM | 8.35 µM | 1.37 µM | 1.16 µM | 1.8 µM | 8.75 µM | 1.81 µM | 1.85 µM | 1.78 µM | 2.08 µM | 7.03 µM |
| Cn1cc(-c2nc(-c3cn(C)c4ncccc34)cs2)c2ccccc21 | 4.83 µM | 31 µM | 18.4 µM | > 100 µM | 25.2 µM | 14 µM | 38.7 µM | > 100 µM | > 100 µM | 3.06 µM | 1.44 µM | 2.32 µM | 0.802 µM | 1.77 µM | 3.68 µM | 1.68 µM | 1.39 µM | 1.24 µM | 4.76 µM | 0.842 µM |
| CCS(=O)(=O)N1CCN(c2ccc(Nc3ncc(C(N)=O)c(NC4CC4)n3)cc2)CC1 | 9.53 µM | 11.3 µM | > 100 µM | > 100 µM | > 100 µM | 21.2 µM | > 100 µM | 61.9 µM | 49.6 µM | 26.6 µM | 2.46 µM | 3.19 µM | 5.84 µM | 63 µM | 38 µM | 2.61 µM | 5.29 µM | 20.6 µM | 2.6 µM | 3.13 µM |
| C=CCN1C(=O)[C@]2(SC1=S)[C@H](c1cccc(Cl)c1)CN(C)[C@]21C(=O)NC2C=CC(Cl)=C[C@H]21 (stereo not given in full) | 18.2 µM | 8.49 µM | 13.9 µM | 24.6 µM | 16.8 µM | 4.35 µM | 16.5 µM | 11.6 µM | 3.77 µM | 18.2 µM | 2.37 µM | 2.06 µM | 2.88 µM | 4.54 µM | 4.83 µM | 1.78 µM | 2.98 µM | 2.89 µM | 1.81 µM | 5.28 µM |
| CCC(C(=O)[C@@H](C)[C@@H](O)[C@H](C)[C@@H]1O[C@@H]([C@@H](CC)C(=O)ONC(=O)c2ccccc2)CC[C@@H]1C)[C@H]1O[C@]2(C=CC(=O)[C@]3(CC[C@@](C)([C@H]4CC[C@](O)(CC)[C@H](C)O4)O3)O2)[C@H](C)C[C@@H]1C (stereo not given in full) | 2.04 µM | 1.97 µM | 1.91 µM | 2.65 µM | 3.43 µM | 1.78 µM | 0.631 µM | 2.71 µM | 1.49 µM | 0.361 µM | 0.238 µM | 0.146 µM | 0.36 µM | 0.548 µM | 0.588 µM | 0.122 µM | 0.198 µM | 0.582 µM | 0.0614 µM | 0.105 µM |
| N/C(=N/S(=O)(=O)c1cc(C(=O)Nc2ccc(F)cc2)c(Cl)cc1SCc1ccccc1)Nc1ccccc1O | 3.84 µM | 4.74 µM | 4 µM | 4.46 µM | > 100 µM | > 100 µM | 3.57 µM | 3.54 µM | 3.7 µM | 4.57 µM | 1.96 µM | 1.83 µM | 1.95 µM | 1.81 µM | 4.29 µM | 4.1 µM | 1.88 µM | 1.88 µM | 1.88 µM | 1.85 µM |
| O=C(Nc1cc2cc([N+](=O)[O-])ccc2oc1=O)c1cccs1 | 16.5 µM | > 100 µM | > 100 µM | > 100 µM | > 100 µM | 85.2 µM | > 100 µM | > 100 µM | > 100 µM | 45 µM | – | – | – | – | – | – | – | – | – | – |
| CCC(C)C(=O)OC1CCC=C2C=CC(C)C(CCC3CC(O)CC(=O)O3)C21 (stereo not given) | > 75.9 µM | 73 µM | > 100 µM | > 100 µM | > 100 µM | 32.4 µM | 44.1 µM | > 100 µM | > 100 µM | > 100 µM | – | – | – | – | – | – | – | – | – | – |
| C(=C\c1ccc(OCC2CO2)cc1)/C1=NCOC1 (stereo not given) | 31.6 µM | 27.2 µM | 24.1 µM | 58.4 µM | 29.2 µM | 32.4 µM | 20.4 µM | 22.5 µM | 25.9 µM | 26.6 µM | 16.6 µM | 12.4 µM | 7.01 µM | 19.1 µM | 4.73 µM | 6.33 µM | 5.74 µM | 6.1 µM | 10.6 µM | 12.6 µM |
